# Data: US7365095B2, “Chromane and chromene derivatives and uses thereof” (Wyeth, priority 2005, dated 2008)
# Where a name gives a salt, the structure may show the parent alone. Read-outs that look alike come from different tables or passages of the source.
# How the values were obtained:
# [1] = biological target: T1, human 5-hydroxytryptamine-2C (h5-HT2C) receptor (Homo sapiens, UniProt P28335); experiment: [125I]DOI binding to membranes of CHO cells expressing h5-HT2C receptor
# T1 construct: expressed in transfected cells; host or cells: CHO (Chinese Hamster Ovary) cells; membrane preparation
# T1 sequence (P28335 33-458): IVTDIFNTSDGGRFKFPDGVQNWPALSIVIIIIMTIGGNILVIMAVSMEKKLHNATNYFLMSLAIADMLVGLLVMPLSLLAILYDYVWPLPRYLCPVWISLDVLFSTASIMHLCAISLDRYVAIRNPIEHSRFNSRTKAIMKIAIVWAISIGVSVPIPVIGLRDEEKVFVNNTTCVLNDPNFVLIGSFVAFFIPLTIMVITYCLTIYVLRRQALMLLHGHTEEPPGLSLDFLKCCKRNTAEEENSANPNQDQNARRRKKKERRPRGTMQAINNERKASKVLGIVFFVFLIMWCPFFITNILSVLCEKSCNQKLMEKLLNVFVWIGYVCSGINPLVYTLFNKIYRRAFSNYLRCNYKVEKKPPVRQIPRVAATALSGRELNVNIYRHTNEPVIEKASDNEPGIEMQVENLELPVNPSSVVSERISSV
# human 5-HT2C receptor = biological target: T2, human 5-HT2C receptor (Homo sapiens, UniProt P28335); experiment: calcium mobilization (FLIPR) in CHO cells stably expressing the human 5-HT2C receptor; assay type: cell-based; conditions: for Emax: CHO, read-out: 5-HT2C Function EMax (%); for EC50: calcium mobilization, read-out: 5-HT2C Function EC50
# T2 sequence (P28335 33-458): T1 sequence (P28335 33-458)
# [2] = read-out: 5-HT2C Binding Ki avg
Structure (SMILES),"Ki [1, 2]",Emax (human 5-HT2C receptor),EC50 (human 5-HT2C receptor),"Ki ([1]; reference compounds, 95% confidence interval in brackets, [125I]DOI displacement, read-out: Ki)","Kd ([1]; saturation binding with increasing concentrations of [125I] DOI, read-out: dissociation constant, KD)"
"CNC[C@@H]1CCc2cccc(-c3ccc(Cl)cc3Cl)c2O1 [Compound 21, {[(2S)-8-(2,4-dichlorophenyl)-3,4-dihydro-2H-chromen-2-yl]methyl}methylamine hydrochloride]",> 0.05 µM,80%,0.05 to 0.2 µM,,
"NC[C@@H]1CCc2cc(F)cc(-c3ccccc3Cl)c2O1 [Compound 51, {[(2S)-8-(2-chlorophenyl)-6-fluoro-3,4-dihydro-2H-chromen-2-yl]methyl}amine hydrochloride]",0.01 to 0.05 µM,80%,< 0.05 µM,,
"NC[C@H]1CCc2cc(F)cc(-c3ccc(Cl)cc3Cl)c2O1 [Compound 47, {[(2R)-8-(2,4-dichlorophenyl)-6-fluoro-3,4-dihydro-2H-chromen-2-yl]methyl}amine hydrochloride]",> 0.05 µM,90%,0.05 to 0.2 µM,,
"CNC[C@H]1CCc2cccc(-c3ccccc3C)c2O1 [Compound 8, N-methyl-N-{[(2R)-8-(2-methylphenyl)-3,4-dihydro-2H-chromen-2-yl]methyl}amine hydrochloride]",≤ 0.01 µM,100%,< 0.05 µM,,
"CNC[C@@H]1CCc2cccc(-c3ccccc3C)c2O1 [Compound 25, N-methyl-1-[(2S)-8-(2-methylphenyl)-3,4-dihydro-2H-chromen-2-yl]methanamine hydrochloride]",0.01 to 0.05 µM,90%,> 0.2 µM,,
"NC[C@@H]1CCc2cccc(-c3ccccc3)c2O1 [Compound 30, {[(2S)-8-phenyl-3,4-dihydro-2H-chromen-2-yl]methyl}amine hydrochloride]",> 0.05 µM,,,,
"CNC[C@@H]1CCc2cccc(-c3ccc(OC)cc3OC)c2O1 [Compound 24, {[(2S)-8-(2,4-dimethoxyphenyl)-3,4-dihydro-2H-chromen-2-yl]methyl}methylamine hydrochloride]",0.01 to 0.05 µM,100%,0.05 to 0.2 µM,,
"CNC[C@H]1CCc2cccc(-c3ccccc3OC)c2O1 [Compound 6, N-{[(2R)-8-(2-methoxyphenyl)-3,4-dihydro-2H-chromen-2-yl]methyl}-N-methylamine hydrochloride]",≤ 0.01 µM,90%,< 0.05 µM,,
"CNC[C@H]1CCc2cc(F)cc(-c3ccccc3C)c2O1 [Compound 43, {[(2R)-6-fluoro-8-(2-methylphenyl)-3,4-dihydro-2H-chromen-2-yl]methyl}methylamine hydrochloride]",≤ 0.01 µM,90%,0.05 to 0.2 µM,,
"CNC[C@@H]1CCc2cccc(-c3cccnc3)c2O1 [Compound 26, N-methyl-1-[(2S)-8-pyridin-3-yl-3,4-dihydro-2H-chromen-2-yl]methanamine hydrochloride]",> 0.05 µM,,,,
"CNC[C@H]1CCc2cc(F)cc(-c3cc(Cl)ccc3Cl)c2O1 [Compound 40, {[(2R)-8-(2,5-dichlorophenyl)-6-fluoro-3,4-dihydro-2H-chromen-2-yl]methyl}methylamine hydrochloride]",≤ 0.01 µM,90%,< 0.05 µM,,
"NC[C@H]1CCc2cccc(-c3cccnc3)c2O1 [Compound 18, {[(2R)-8-pyridin-3-yl-3,4-dihydro-2H-chromen-2-yl]methyl}amine hydrochloride]",> 0.05 µM,90%,< 0.05 µM,,
"NC[C@H]1CCc2cc(F)cc(-c3c(Cl)cccc3Cl)c2O1 [Compound 57, {[(2R)-8-(2,6-dichlorophenyl)-6-fluoro-3,4-dihydro-2H-chromen-2-yl]methyl}amine hydrochloride]",≤ 0.01 µM,80%,< 0.05 µM,,
"CNCC1C=Cc2cc(F)cc(-c3ccccc3Cl)c2O1 (stereo not shown) [Compound 61, {[8-(2-chlorophenyl)-6-fluoro-2H-chromen-2-yl]methyl}methylamine hydrochloride]",≤ 0.01 µM,90%,< 0.05 µM,,
"NCC1CCc2cc(F)cc(-c3ccccc3Cl)c2O1 (stereo not shown) [Compound 37, {[8-(2-chlorophenyl)-6-fluoro-3,4-dihydro-2H-chromen-2-yl]methyl}amine hydrochloride]",≤ 0.01 µM,100%,< 0.05 µM,,
"NCC1C=Cc2cc(F)cc(-c3ccccc3Cl)c2O1 (stereo not shown) [Compound 62, {[8-(2-chlorophenyl)-6-fluoro-2H-chromen-2-yl]methyl}amine hydrochloride]",0.01 to 0.05 µM,100%,< 0.05 µM,,
"NC[C@@H]1CCc2cc(F)cc(-c3cccnc3)c2O1 [Compound 54, {[(2S)-6-fluoro-8-pyridin-3-yl-3,4-dihydro-2H-chromen-2-yl]methyl}amine hydrochloride]",> 0.05 µM,,,,
"NC[C@@H]1CCc2cccc(-c3cccnc3)c2O1 [Compound 34, {[(2S)-8-pyridin-3-yl-3,4-dihydro-2H-chromen-2-yl]methyl}amine hydrochloride]",> 0.05 µM,,,,

Structure (SMILES),"Ki [1, 2]",Emax (human 5-HT2C receptor),EC50 (human 5-HT2C receptor),"Ki ([1]; reference compounds, 95% confidence interval in brackets, [125I]DOI displacement, read-out: Ki)","Kd ([1]; saturation binding with increasing concentrations of [125I] DOI, read-out: dissociation constant, KD)"
"NC[C@H]1CCc2cc(F)cc(-c3cc(Cl)ccc3Cl)c2O1 [Compound 46, {[(2R)-8-(2,5-dichlorophenyl)-6-fluoro-3,4-dihydro-2H-chromen-2-yl]methyl}amine hydrochloride]",0.01 to 0.05 µM,90%,> 0.2 µM,,
"NC[C@H]1C=Cc2cc(F)cc(-c3c(Cl)cccc3Cl)c2O1 [Compound 66, {[(2R)-8-(2,6-dichlorophenyl)-6-fluoro-2H-chromen-2-yl]methyl}amine hydrochloride]",≤ 0.01 µM,90%,< 0.05 µM,,
"CSc1ccc2c(c1)C(N1CCN(C)CC1)Cc1ccccc1S2 (stereo not shown) [Methiothepin, reference compound]",,,,0.0046 µM,
"NC[C@@H]1CCc2cc(F)cc(-c3cc(Cl)ccc3Cl)c2O1 [Compound 55, {[(2S)-8-(2,5-dichlorophenyl)-6-fluoro-3,4-dihydro-2H-chromen-2-yl]methyl}amine hydrochloride]",≤ 0.01 µM,70%,0.05 to 0.2 µM,,
"CNC[C@H]1CCc2cccc(-c3ccccc3)c2O1 [Compound 5, N-methyl-N-{[(2R)-8-phenyl-3,4-dihydro-2H-chromen-2-yl]methyl}amine hydrochloride]",≤ 0.01 µM,90%,0.05 to 0.2 µM,,
"NC[C@H]1CCc2cccc(-c3cc(Cl)ccc3Cl)c2O1 [Compound 12, {[(2R)-8-(2,5-dichlorophenyl)-3,4-dihydro-2H-chromen-2-yl]methyl}amine hydrochloride]",0.01 to 0.05 µM,90%,0.05 to 0.2 µM,,
"CNC[C@H]1CCc2cccc(-c3c(Cl)cccc3Cl)c2O1 [Compound 35, {[(2R)-8-(2,6-dichlorophenyl)-3,4-dihydro-2H-chromen-2-yl]methyl}methylamine hydrochloride]",≤ 0.01 µM,90%,< 0.05 µM,,
"NC[C@H]1C=Cc2cccc(-c3c(Cl)cccc3Cl)c2O1 [Compound 60, {[(2R)-8-(2,6-dichlorophenyl)-2H-chromen-2-yl]methyl}amine hydrochloride]",≤ 0.01 µM,100%,< 0.05 µM,,
"NC[C@H]1CCc2cccc(-c3ccccc3)c2O1 [Compound 14, {[(2R)-8-phenyl-3,4-dihydro-2H-chromen-2-yl]methyl}amine hydrochloride]",0.01 to 0.05 µM,80%,> 0.2 µM,,
"CNC[C@@H]1CCc2cccc(-c3ccccc3Cl)c2O1 [Compound 19, {[(2S)-8-(2-chlorophenyl)-3,4-dihydro-2H-chromen-2-yl]methyl}methylamine hydrochloride]",≤ 0.01 µM,80%,0.05 to 0.2 µM,,
"Cc1cc(Cl)ccc1-c1c(F)ccc2c1O[C@@H](CN)CC2 [Compound 72, ((2R)-8-(4-Chloro-2-methylphenyl)-7-fluorochroman-2-yl)methanamine hydrochloride]",≤ 0.01 µM,,,,
"NC[C@H]1CCc2ccc(F)c(-c3ccccc3Cl)c2O1 [Compound 71, ((2R)-8-(2-chlorophenyl)-7-fluorochroman-2-yl)methanamine hydrochloride]",≤ 0.01 µM,,,,
"COc1cc(CC(C)N)c(OC)cc1I (stereo not shown) [[^125I] DOI, reference compound]",,,,,0.0004 µM
"NC[C@@H]1CCc2cc(F)cc(-c3ccccc3)c2O1 [Compound 52, {[(2S)-6-fluoro-8-phenyl-3,4-dihydro-2H-chromen-2-yl]methyl}amine hydrochloride]",> 0.05 µM,,,,
"Cc1ccccc1-c1c(Cl)ccc2c1O[C@@H](CN)CC2 [Compound 69, ((2R)-7-Chloro-8-o-tolylchroman-2-yl)methanamine hydrochloride]",≤ 0.01 µM,,,,
"COc1ccccc1-c1cccc2c1O[C@H](CN)CC2 [Compound 31, {[(2S)-8-(2-methoxyphenyl)-3,4-dihydro-2H-chromen-2-yl]methyl}amine hydrochloride]",> 0.05 µM,,,,
"CNC[C@@H]1CCc2cccc(-c3ccccc3OC)c2O1 [Compound 23, {[(2S)-8-(2-methoxyphenyl)-3,4-dihydro-2H-chromen-2-yl]methyl}methylamine hydrochloride]",> 0.05 µM,,,,
"CNC[C@@H]1CCc2cccc(-c3ccccc3)c2O1 [Compound 22, N-methyl-1-[(2S)-8-phenyl-3,4-dihydro-2H-chromen-2-yl]methanamine hydrochloride]",> 0.05 µM,,,,
